# Reference: a melting point compilation (Tetko et al.; mined from patent text by program, amines drawn as free bases though some values may be those of a salt)
# Residues, ends and D or L forms follow the SMILES beside them. *: point of attachment. Cbz = O=C(OCc1ccccc1)*
row,SMILES,melting point
1,O=C(O)C1=CS[C@@H]2/C(=C\c3ccc4nc5sccn5c4c3)C(=O)N12,> 250 °C
2,CCOc1ccc(-c2cc(C(F)(F)F)n3ncc(-c4cccnc4)c3n2)cc1C(F)(F)F,178 °C
3,COc1c([N+](=O)[O-])ccc2c1C(=O)CC1(CCN(C(C)=O)CC1)O2,160 to 165 °C
4,CCOC(=O)NC(=O)c1nc(Cl)c(Cl)[nH]1,208 °C
5,O=C(O)c1cnc(Nc2ccccc2F)[nH]c1=O,300 °C
6,COc1cc([N+](=O)[O-])ccc1S(=O)(=O)Nc1ccccc1C,127 to 129 °C
7,CC(C)Oc1c(C(N)=O)oc2ccc(O)cc12,183 to 185 °C
8,COc1c(OCc2ccccc2)c(OC)c2c(=O)cc(-c3ccc(OCc4ccccc4)c(OCc4ccccc4)c3)oc2c1OC,155 to 156 °C
9,CS(=O)(=O)CCS(=O)(=O)C1CCCCC1,89 to 91 °C
10,CCCCCCNC(=N)NC#N,103 to 105 °C
11,CC[C@H](C(N)=O)N1CCCC1=O,115 to 117 °C
12,O=[N+]([O-])c1ccccc1NC1CCN(Cc2ccccc2)CC1,93.4 to 94.6 °C
13,CCN(CC)CCC(=O)C1Nc2cnccc2N(C)n2cccc21 (stereo unspecified),170 to 172 °C
14,CCOC(=O)Cc1csc(NC(=O)c2sc3ccc(OC)cc3c2OC(C)C)n1,91 to 92 °C
15,NS(=O)(=O)c1cc(C(=O)O)cc([N+](=O)[O-])c1Oc1ccc(OCc2ccccc2)cc1,247 °C
16,CS(=O)c1[nH]cc(CCc2ccccc2)c1[N+](=O)[O-] (stereo unspecified),172 to 173 °C
17,CCN(Cc1c(F)cccc1Cl)c1c([N+](=O)[O-])cc(C(F)(F)F)c(Cl)c1[N+](=O)[O-],118 to 125 °C
18,N#Cc1ccc(C=CC(=O)C2CC2)cc1,104 °C
19,CCOc1ccc(C=[N+]([O-])C2CCCC2)cc1,95.1 °C
20,CCOC(=O)c1ccc(NC(=O)NCCN2CCN=C2c2ccccn2)cc1,95 to 97 °C
21,O=C(c1cccc(O)c1)c1sc2cc(O)ccc2c1-c1ccccc1,202 °C

row,SMILES,melting point
1,O=C(NCCCCCCCCNC(=O)c1ccc(OC(F)(F)F)cc1)c1ccc(OC(F)(F)F)cc1,164 to 165 °C
2,N#CC(NC(=O)c1cccn2ccnc12)c1ccco1 (stereo unspecified),149 to 151 °C
3,COc1ccc2c(c1)-c1noc(O)c1CC2,135 to 138 °C
4,CN1CCN(c2cccc3ccc(Nc4ccccc4[N+](=O)[O-])cc23)CC1,87 to 94 °C
5,N=C(N)NCCCC(NC(=O)C1CCCN1C(=O)OCc1ccccc1)C(=O)O (stereo not drawn) (Cbz-Pro-Arg-OH; configuration not given here),137 to 140 °C
6,CC(C)n1nc(-c2sc(C(=O)NC3CC3)nc2-c2ccc(F)cc2)ccc1=O,157 to 158 °C
7,O=C1C(NCCN2CCCC2)=CC(=O)c2oc(-c3cccc(Br)c3)nc21,169 to 170 °C
8,COC(=O)c1ccc(Br)c(S)c1,81 °C
9,Cc1cc2ncn(C)c(=O)c2s1,188 to 190 °C
10,CC(=O)c1ccc(-c2ccc(F)cc2)c(O)c1,152 to 154 °C
11,CC1(C)CCc2ncc([N+](=O)[O-])cc2C1,99 to 101 °C
12,CC(C)(CCCCCCCCCCC(C)(C)C(Cl)C(=O)O)C(Cl)C(=O)O (stereo unspecified),103 to 112 °C
13,CNC(=S)C1(c2cnc3ccccc3c2)CCCS1 (stereo unspecified),159 °C
14,Nc1ccc(C(=O)c2cccc(N)c2)cc1,121 to 123 °C
15,O=C1COc2cc3[nH]c(C(=O)N4CCC(Cc5ccc(F)cc5)CC4)cc3cc2N1,219 to 226 °C
16,COC(=O)c1nccnc1Nc1ccc(Cl)cc1[N+](=O)[O-],191 to 192 °C
17,COc1ccc(C(=O)Nc2ccc(C(=O)NCc3ccccc3)cc2)cc1C12CC3CC(CC(C3)C1)C2,279 to 280 °C
18,OC(CCc1ccc(Br)cc1)Cn1ccnc1 (stereo unspecified),121 to 122 °C
19,CCCC(CNC(=O)Cc1c(Cl)cncc1Cl)c1cccc(OC)c1 (stereo unspecified),97 to 98 °C
20,COc1ccc2sc(C(N)=O)c(S(=O)(=O)C(C)C)c2c1,169 to 170 °C
